How the values were obtained:
[1] = cited from earlier work
K. pneumoniae AH-16 = assay: Mucin peritonitis survival model in BALB/c mice; format: in vivo, Klebsiella pneumoniae; details: 5 mg/kg s.c., three doses at 2, 12, 24 h post-infection
Description: The survival study was performed by following a method described earlier, with some modifications; 8–10 week old, female BALB/c mice, 10 mice in each group, were infected with 100μL (OD600nm = 1) of K. pneumoniae AH-16 bacterial suspension prepared in porcine mucin 5% via intraperitoneal injection. Mice were injected subcutaneously with tridecaptin M (10 mg/kg) and colistin (5 mg/kg). The treatment was given in three doses at 2 h, 12 h, and 24 h post-infection to ensure a 15 mg/kg/day maximum dose limit for colistin. The survival or death of mice was monitored and recorded every 12 h for 7 days ([41]).

K. pneumoniae = format: cell-based, Klebsiella pneumoniae
Description: (§1) The MIC for all isolates was determined using the broth microdilution method. This involved preparing CA-MHB medium and serially diluting antibiotic solutions by a factor of two. The test organism was adjusted to a concentration of ≈5 × 10^5 CFU/mL. In a sterile 96-well microtiter plate, 100 µL of CA-MHB, along with 100 µL of each antibiotic, was added, and serial dilutions were made. A 100 µL suspension of the organism was added to each well and mixed, resulting in a total reaction volume of 200 µL per well. The plate was then incubated at 37°C for 16–18 h. The MIC was identified as the lowest concentration of antibiotic that prevented any visible growth of the organism ([16]).

E. coli = format: cell-based, Escherichia coli
Description: as §1

[2] = system: K. pneumoniae ATCC 700603; assay: Peritonitis infection model for intravenous efficacy in Balb/c mice; format: in vivo, Klebsiella pneumoniae; details: single i.v. dose 5 mg/kg, 4 h post-infection
Description: Balb/c mice (n = 6), 8-10 weeks old, are rendered neutropenic with cyclophosphamide as in previous experiments. A bacterial load of K. pneumoniae ATCC 700603 standard strain corresponding to ≈10^7 CFU/mL was used, and 100 μL was administered intraperitoneally to cause multi-organ infection conditions. At 4 h, the pre-treatment group was euthanized, and the right kidney of each mouse was harvested, homogenized, serially diluted, and spotted on MHA plates to determine bacterial CFU count per kidney. Simultaneously, at 4 h, the remaining groups were administered 5 mg/kg colistin, 5 mg/kg tridecaptin M, 10 mg/kg tridecaptin M, and vehicle control (PBS); 24 h after treatment, the remaining groups were euthanized, and the CFU count in the right kidney was determined the same as the 4 h pre-treatment group.

[3] = Intravenous acute toxicity in mice; format: in vivo, Balb/c mice; details: 18 mg/kg i.v.
Description: In total, 8–10 week old female Balb/c mice (n = 3) were administered tridecaptin M starting at 15 mg/kg, 25 mg/kg, 50 mg/kg, and 100 mg/kg. […] In this study, we administered 18 mg/kg of colistin to mice intravenously. […] Later, in the second set, intermediate concentrations of 20 mg/kg, 25 mg/kg, 30 mg/kg, 35 mg/kg, and 40 mg/kg doses were also administered to n = 4 mice. In these groups, blood was collected at 24 h post administration or immediately after visible movement stopped (40 mg/kg group), serum was separated and pooled together for each group n = 4, and biochemical serum tests were conducted.

CYP2D6 = CYP2D6 (Homo sapiens, UniProt P10635); assay: CYP inhibition assay, recombinant isoform, fluorescence; format: biochemical; details: human, recombinant CYP2D6
Description: (§2) The CYP inhibition assay was performed for test/control inhibitor items in duplicates using a 96-well fluorescence plate. An example of the preparation of CYP inhibition is given below in Table 8.
(§3) The plate with CYP master premix with test/control was incubated to allow the test/control samples to interact with CYP enzyme for 10 ± 1 min at 25°C under shaking conditions (400 rpm) using Thermomixer. The assay was initiated by adding 10 µL of a substrate and NADP^+ mixture to all wells, including a vehicle control and an assay blank. […] After incubation, the reaction was quenched by adding 50 µL of stop reagent (0.5 M Tris base) to each well.

CYP1A2 = biological target: T1, CYP1A2 (Homo sapiens, UniProt P05177); assay: in vitro; format: biochemical; details: human, % inhibition CYP 1A2
T1 sequence (P05177 1-516): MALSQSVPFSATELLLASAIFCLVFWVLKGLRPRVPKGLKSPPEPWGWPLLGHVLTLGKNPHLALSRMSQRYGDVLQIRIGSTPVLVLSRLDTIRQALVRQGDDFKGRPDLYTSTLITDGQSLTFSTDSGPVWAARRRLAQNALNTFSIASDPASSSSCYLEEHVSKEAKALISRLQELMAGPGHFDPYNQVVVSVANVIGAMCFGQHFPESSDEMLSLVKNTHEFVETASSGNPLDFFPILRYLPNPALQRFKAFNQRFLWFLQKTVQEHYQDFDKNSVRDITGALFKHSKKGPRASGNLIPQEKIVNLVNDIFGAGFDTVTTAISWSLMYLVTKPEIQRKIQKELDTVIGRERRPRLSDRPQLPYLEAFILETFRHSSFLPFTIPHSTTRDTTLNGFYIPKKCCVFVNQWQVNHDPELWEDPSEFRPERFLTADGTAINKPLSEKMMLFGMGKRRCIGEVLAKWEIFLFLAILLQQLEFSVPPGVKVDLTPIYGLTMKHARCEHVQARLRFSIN
Description: as §2, §3

CYP2C9 = CYP2C9 (Homo sapiens, UniProt P11712); assay: CYP inhibition assay, recombinant isoform, fluorescence; format: biochemical; details: human, read-out: % inhibition CYP 2C9
Description: as §2
The plate with CYP master premix with test/control was incubated to allow the test/control samples to interact with CYP enzyme for 10 ± 1 min at 25°C under shaking conditions (400 rpm) using Thermomixer. The assay was initiated by adding 10 µL of a substrate and NADP^+ mixture to all wells, including a vehicle control and an assay blank. The plate was then incubated at 25°C for 25 min with shaking at 400 rpm using a thermomixer. After incubation, the reaction was quenched by adding 50 µL of stop reagent (0.5 M Tris base) to each well. Fluorescence was measured using a microplate reader at excitation/emission wavelengths of 415/460 nm, respectively ([37]).

in vitro [4] = details: rat, liver microsomes, pH 7.4
in vitro [5] = details: mouse, liver microsomes, pH 7.4
in vitro [6] = details: human, liver microsomes, pH 7.4

CYP2C9, sequence (P11712 whole entry, canonical isoform): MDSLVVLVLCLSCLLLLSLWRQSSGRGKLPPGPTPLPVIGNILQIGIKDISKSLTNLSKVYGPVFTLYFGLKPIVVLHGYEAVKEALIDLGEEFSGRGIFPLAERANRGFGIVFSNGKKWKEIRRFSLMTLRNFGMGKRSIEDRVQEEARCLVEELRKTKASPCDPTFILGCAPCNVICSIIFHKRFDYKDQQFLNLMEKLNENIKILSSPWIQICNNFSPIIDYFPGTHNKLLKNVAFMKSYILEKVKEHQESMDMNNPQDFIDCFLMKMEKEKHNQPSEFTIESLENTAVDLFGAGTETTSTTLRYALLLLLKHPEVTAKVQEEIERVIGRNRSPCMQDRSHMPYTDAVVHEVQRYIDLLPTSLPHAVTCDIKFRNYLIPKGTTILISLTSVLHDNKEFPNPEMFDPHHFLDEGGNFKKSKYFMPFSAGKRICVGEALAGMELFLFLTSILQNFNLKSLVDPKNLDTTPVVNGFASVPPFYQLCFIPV
CYP2D6, sequence (P10635 whole entry, canonical isoform): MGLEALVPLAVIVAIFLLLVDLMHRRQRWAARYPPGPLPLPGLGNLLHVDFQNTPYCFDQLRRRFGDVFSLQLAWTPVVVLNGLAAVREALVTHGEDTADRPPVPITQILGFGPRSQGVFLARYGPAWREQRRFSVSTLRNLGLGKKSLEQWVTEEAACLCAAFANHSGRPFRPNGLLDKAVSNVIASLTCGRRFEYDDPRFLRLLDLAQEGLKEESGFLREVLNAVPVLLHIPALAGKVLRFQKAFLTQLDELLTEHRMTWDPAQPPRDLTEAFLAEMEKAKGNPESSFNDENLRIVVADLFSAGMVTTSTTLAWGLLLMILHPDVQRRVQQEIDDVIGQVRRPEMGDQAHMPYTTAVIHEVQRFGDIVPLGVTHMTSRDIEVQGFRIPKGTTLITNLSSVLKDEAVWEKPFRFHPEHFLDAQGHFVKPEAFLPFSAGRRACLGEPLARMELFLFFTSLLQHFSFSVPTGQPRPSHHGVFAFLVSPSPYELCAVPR

For colistin [reference compound], the “subcutaneous dose known to be lethal to mice” value [1] is listed as “exceeding 36 mg/kg”, the “mortality in acute toxicity study” value ([1]; colistin group of the same study) is listed as “all mice in the colistin group died within 24 h” and the “survival at the end of 7 days” value (K. pneumoniae AH-16) is listed as 40%. The MIC range (K. pneumoniae; Col-S (colistin sensitive) clinical isolates (72)) was 0.25 to 2 µg/mL, the MIC (K. pneumoniae; Std. QC strain ATCC 700603) was 0.5 µg/mL and the MIC range (E. coli; Col-S clinical isolates (52)) was 0.25 to 1 µg/mL. For the same molecule, the MIC (E. coli; Std. QC strain ATCC 25922) was 0.25 µg/mL, the “efficacy (CFU/kidney) compared with tridecaptin M” value [2] was “superior performance” and the “outcome of i.v. administration” value [3] was “immediately lethal”.

With `C=C[C@H]1C[N@@]2CC[C@H]1C[C@@H]2[C@@H](O)c1ccnc2ccc(OC)cc12` [Quinidine, reference compound] the inhibition at 25 min, 0.003 µM (CYP2D6) was 52.4%, the inhibition at 25 min, 0.0003 µM (CYP2D6; 0.0003 µM, read-out: % inhibition CYP 2D6) was < 0% and the inhibition at 25 min, 0.001 µM (CYP2D6; 0.001 µM, read-out: % inhibition CYP 2D6) was 14%. The inhibition at 25 min, 0.01 µM (CYP2D6; 0.01 µM, read-out: % inhibition CYP 2D6) was 88.6%, the inhibition at 25 min, 0.03 µM (CYP2D6; 0.03 µM, read-out: % inhibition CYP 2D6) was 92.6% and the inhibition at 25 min, 0.1 µM (CYP2D6; 0.1 µM, read-out: % inhibition CYP 2D6) was 93.4%. It also gave an inhibition at 25 min, 0.3 µM (CYP2D6; 0.3 µM, read-out: % inhibition CYP 2D6) of 92.5% and an inhibition at 25 min, 1 µM (CYP2D6; 1 µM, read-out: % inhibition CYP 2D6) of 95.7%.

For `Cc1nc2c([nH]1)c(=O)n(C)c(=O)n2Cc1ccco1` [Furafylline, reference compound], the inhibition at 25 min, 0.01 µM (CYP1A2) was < 0%, the inhibition at 25 min, 0.03 µM (CYP1A2) was < 0% and the inhibition at 25 min, 0.1 µM (CYP1A2) was < 0%. The inhibition at 25 min, 0.3 µM (CYP1A2) was 9.3%, the inhibition at 25 min, 1 µM (CYP1A2) was 45.3% and the inhibition at 25 min, 3 µM (CYP1A2) was 67.7%. The inhibition at 25 min, 10 µM (CYP1A2) was 90.8%.

In the case of `Nc1ccc(S(=O)(=O)Nc2ccnn2-c2ccccc2)cc1` [Sulfaphenazole, reference compound], the inhibition at 25 min, 0.001 µM (CYP2C9; 0.001 µM) is reported as < 0%, the inhibition at 25 min, 0.003 µM (CYP2C9; 0.003 µM) is reported as 3.42% and the inhibition at 25 min, 0.01 µM (CYP2C9; 0.01 µM) is reported as 11.3%. For the same molecule, the inhibition at 25 min, 0.03 µM (CYP2C9; 0.03 µM) was 27.2%, the inhibition at 25 min, 0.1 µM (CYP2C9; 0.1 µM) was 34.7% and the inhibition at 25 min, 0.3 µM (CYP2C9; 0.3 µM) was 45.2%. It also gave an inhibition at 25 min, 1 µM (CYP2C9; 1 µM) of 53.5% and an inhibition at 25 min, 3 µM (CYP2C9; 3 µM) of 57.9%.

With `O=C(O)Cc1ccccc1Nc1c(Cl)cccc1Cl` [Diclofenac, reference compound] the half-life (in vitro [4]) was > 120 min, the microsomal CLint (in vitro [4]) was < 11.6 µL/min/mg and the remaining at 0.25 h (in vitro [4]) was 102%. For the same molecule, the remaining at 0.5 h (in vitro [4]) was 88.6%, the remaining at 1 h (in vitro [4]) was 67.2% and the remaining at 2 h (in vitro [4]) was 64.5%. The half-life (in vitro [5]) was 92.4 min, the microsomal CLint (in vitro [5]) was 15 µL/min/mg and the remaining at 0.5 h (in vitro [5]) was 77.7%. It also gave a remaining at 1 h (in vitro [5]) of 58.7%, a remaining at 2 h (in vitro [5]) of 40.1% and a half-life (in vitro [6]) of 19.6 min. It also gave a microsomal CLint (in vitro [6]) of 70.6 µL/min/mg, a remaining at 0.25 h (in vitro [6]) of 53.2% and a remaining at 0.5 h (in vitro [6]) of 36.5%. For the same molecule, the remaining at 1 h (in vitro [6]) was 11.6% and the remaining at 2 h (in vitro [6]) was 8.3%.
